Our source for the Ki values is patent US9656955B2, “Pyrrolidine derivatives, pharmaceutical compositions containing them, and their use in therapy” (AbbVie Deutschland GmbH & Co. KG, priority 2013, dated 2017).

This assay deals with human GlyT1c transporter (Homo sapiens (Human), UniProt P48067). In words: Radioligand binding assays using recombinant CHO cell membranes expressing human GlyT1. Particulars: radioligand binding, human GlyT1c transporter-expressing CHO cell membranes.
Chain of human GlyT1c transporter (P48067 whole entry): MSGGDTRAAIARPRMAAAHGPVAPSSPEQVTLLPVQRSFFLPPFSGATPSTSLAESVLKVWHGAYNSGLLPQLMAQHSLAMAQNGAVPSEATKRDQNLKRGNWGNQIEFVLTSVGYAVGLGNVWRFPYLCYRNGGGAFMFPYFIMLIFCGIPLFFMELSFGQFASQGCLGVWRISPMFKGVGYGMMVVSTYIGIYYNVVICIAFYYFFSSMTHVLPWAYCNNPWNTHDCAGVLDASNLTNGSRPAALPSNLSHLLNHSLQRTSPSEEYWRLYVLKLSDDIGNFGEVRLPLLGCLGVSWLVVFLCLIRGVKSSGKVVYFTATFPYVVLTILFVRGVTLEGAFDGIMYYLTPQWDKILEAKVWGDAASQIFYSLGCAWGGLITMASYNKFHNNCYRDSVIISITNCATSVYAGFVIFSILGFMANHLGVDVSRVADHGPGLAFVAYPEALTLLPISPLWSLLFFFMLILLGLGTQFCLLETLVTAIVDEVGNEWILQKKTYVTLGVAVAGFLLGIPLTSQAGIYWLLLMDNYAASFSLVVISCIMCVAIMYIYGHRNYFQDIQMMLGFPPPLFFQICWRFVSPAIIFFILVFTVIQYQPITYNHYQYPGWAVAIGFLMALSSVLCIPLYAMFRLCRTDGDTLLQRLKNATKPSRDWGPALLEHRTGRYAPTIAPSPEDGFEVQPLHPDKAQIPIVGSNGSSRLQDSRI

By Ki is commonly meant the dissociation constant of the complex between target and ligand, obtained from inhibition or displacement. With `Cn1ccc(S(=O)(=O)N2CC(Nc3ccc(F)c(F)c3)C(c3ccccc3)C2)n1` (centres unmarked) [Example 502, N-(3,4-difluorophenyl)-1-[(1-methyl-1H-pyrazol-3-yl)sulfonyl]-4-phenylpyrrolidin-3-amine], the Ki was not above 10000 nM.
For `COC(=O)c1ccc(S(=O)(=O)N2CC(Nc3ccc(F)c(F)c3)C(c3ccccc3)C2)n1C` (centres unmarked) [Example 504, methyl 5-({3-[(3,4-difluorophenyl)amino]-4-phenylpyrrolidin-1-yl}sulfonyl)-1-methyl-1H-pyrrole-2-carboxylate] the value was not above 10000 nM; for `Cc1nn(C)c(C)c1S(=O)(=O)N1CC(Nc2ccc(F)c(F)c2)C(c2ccccc2)C1` (centres unmarked) [Example 508, N-(3,4-difluorophenyl)-4-phenyl-1-[(1,3,5-trimethyl-1H-pyrazol-4-yl)sulfonyl]pyrrolidin-3-amine], not above 10000 nM; for `O=S(=O)(C1CCC1)N1CC(Nc2ccc(F)c(F)c2)C(c2ccccc2)C1` (centres unmarked) [Example 509, 1-(cyclobutylsulfonyl)-N-(3,4-difluorophenyl)-4-phenylpyrrolidin-3-amine], not above 10000 nM.
Next, `O=S(=O)(c1ccc(Cl)s1)N1CC(Nc2ccc(F)c(F)c2)C(c2ccccc2)C1` (centres unmarked) [Example 511, 1-[(5-chlorothiophen-2-yl)sulfonyl]-N-(3,4-difluorophenyl)-4-phenylpyrrolidin-3-amine]: not above 10000 nM; `Cn1nccc1S(=O)(=O)N1CC(Nc2ccc(F)c(F)c2)C(c2ccccc2)C1` (centres unmarked) [Example 516, N-(3,4-difluorophenyl)-1-[(1-methyl-1H-pyrazol-5-yl)sulfonyl]-4-phenylpyrrolidin-3-amine]: not above 10000 nM; `Cn1cnc(S(=O)(=O)N2C[C@H](Nc3ccc(Cl)c(C(F)(F)F)c3)[C@@H](c3ccc(F)cc3)C2)c1` [Example 540, (3R,4S)—N-[4-chloro-3-(trifluoromethyl)phenyl]-4-(4-fluorophenyl)-1-[(1-methyl-1H-imidazol-4-yl)sulfonyl]pyrrolidin-3-amine]: not above 100 nM.
Next, `CC(C)COC(=O)N[C@H]1CN(S(=O)(=O)c2cn(C)cn2)C[C@@H]1c1ccccc1` [Example 543, 2-methylpropyl {(3R,4S)-1-[(1-methyl-1H-imidazol-4-yl)sulfonyl]-4-phenylpyrrolidin-3-yl}carbamate]: not above 10000 nM; `CCCCCCN[C@H]1CN(S(=O)(=O)c2cn(C)cn2)C[C@@H]1c1ccccc1` [Example 548, (3R,4S)—N-hexyl-1-[(1-methyl-1H-imidazol-4-yl)sulfonyl]-4-phenylpyrrolidin-3-amine]: not above 10 nM.
`Cn1cnc(S(=O)(=O)N2C[C@H](NCC3CCOC(C)(C)C3)[C@@H](c3ccccc3)C2)c1` (stereo partly drawn) [Example 557, (3R,4S)—N-[(2,2-dimethyltetrahydro-2H-pyran-4-yl)methyl]-1-[(1-methyl-1H-imidazol-4-yl)sulfonyl]-4-phenylpyrrolidin-3-amine]: the Ki was not above 10000 nM.
For `Cn1cnc(S(=O)(=O)N2C[C@H](NCc3cccc4cncn34)[C@@H](c3ccccc3)C2)c1` [Example 560, (3R,4S)—N-(imidazo[1,5-a]pyridin-5-ylmethyl)-1-[(1-methyl-1H-imidazol-4-yl)sulfonyl]-4-phenylpyrrolidin-3-amine] the value was not below 10000 nM; for `Cn1cnc(S(=O)(=O)N2C[C@H](NCc3csc(Cl)n3)[C@@H](c3ccccc3)C2)c1` [Example 562, (3R,4S)—N-[(2-chloro-1,3-thiazol-4-yl)methyl]-1-[(1-methyl-1H-imidazol-4-yl)sulfonyl]-4-phenylpyrrolidin-3-amine], not above 10000 nM; for `Cc1cccc2ncc(CN[C@H]3CN(S(=O)(=O)c4cn(C)cn4)C[C@@H]3c3ccccc3)n12` [Example 563, (3R,4S)-1-[(1-methyl-1H-imidazol-4-yl)sulfonyl]-N-[(5-methylimidazo[1,2-a]pyridin-3-yl)methyl]-4-phenylpyrrolidin-3-amine], not above 10000 nM.
Next, `Cn1cnc(S(=O)(=O)N2C[C@H](NCCCC3CC3)[C@@H](c3ccccc3)C2)c1` [Example 573, (3R,4S)—N-(3-cyclopropylpropyl)-1-[(1-methyl-1H-imidazol-4-yl)sulfonyl]-4-phenylpyrrolidin-3-amine]: not above 100 nM; `Cc1cc(N[C@H]2CN(S(=O)(=O)c3cn(C)cn3)C[C@@H]2c2ccccc2)ncc1F` [Example 574, 5-fluoro-4-methyl-N-{(3R,4S)-1-[(1-methyl-1H-imidazol-4-yl)sulfonyl]-4-phenylpyrrolidin-3-yl}pyridin-2-amine]: not above 100 nM; `CC(C)OCCCNC(=O)[C@@H]1CN(S(=O)(=O)c2cn(C)cn2)C[C@H]1c1ccc(F)cc1` [Example 577, (3S,4R)-4-(4-fluorophenyl)-1-[(1-methyl-1H-imidazol-4-yl)sulfonyl]-N-[3-(propan-2-yloxy)propyl]pyrrolidine-3-carboxamide]: more than 10000 nM.
Next, `CCCCNC(=O)[C@@H]1CN(S(=O)(=O)c2cn(C)cn2)C[C@H]1c1ccc(F)cc1` [Example 581, (3S,4R)—N-butyl-4-(4-fluorophenyl)-1-[(1-methyl-1H-imidazol-4-yl)sulfonyl]pyrrolidine-3-carboxamide]: not above 100 nM.
Turning to `Cn1cnc(S(=O)(=O)N2CC(Nc3cccc(C(F)(F)F)c3)C(C3CCCO3)C2)c1` (centres unmarked) [Example 603, 1-[(1-methyl-1H-imidazol-4-yl)sulfonyl]-4-(tetrahydrofuran-2-yl)-N-[3-(trifluoromethyl)phenyl]pyrrolidin-3-amine], the inhibition constant Ki was not above 100 nM.
For `Cn1cnc(S(=O)(=O)N2C[C@H](Nc3cccc(C(F)(F)F)c3)[C@@H](C3CCCO3)C2)c1` (stereo partly drawn) [Example 604, (3R,4S)-1-[(1-methyl-1H-imidazol-4-yl)sulfonyl]-4-(tetrahydrofuran-2-yl)-N-[3-(trifluoromethyl)phenyl]pyrrolidin-3-amine] the value was not above 100 nM; for `CCCOc1cc(N[C@H]2CN(S(=O)(=O)c3cn(C)cn3)C[C@@H]2c2ccccc2)ncn1` [Example 622, N-{(3R,4S)-1-[(1-methyl-1H-imidazol-4-yl)sulfonyl]-4-phenylpyrrolidin-3-yl}-6-propoxypyrimidin-4-amine], not above 100 nM; for `CCCCOc1cc(N[C@H]2CN(S(=O)(=O)c3cn(C)cn3)C[C@@H]2c2ccccc2)ncn1` [Example 623, 6-butoxy-N-{(3R,4S)-1-[(1-methyl-1H-imidazol-4-yl)sulfonyl]-4-phenylpyrrolidin-3-yl}pyrimidin-4-amine], not above 100 nM.
For the molecule `CCCn1cc(C[C@@H]2CN(S(=O)(=O)c3cn(C)cn3)C[C@H]2c2ccccc2)nn1` [Example 659, 4-({(3S,4R)-1-[(1-methyl-1H-imidazol-4-yl)sulfonyl]-4-phenylpyrrolidin-3-yl}methyl)-1-propyl-1H-1,2,3-triazole], the Ki was not above 10000 nM.
Next, `CCCCCCN[C@H]1CN(S(=O)(=O)c2cn(C)cn2)C[C@@H]1c1ccc(F)cc1` [Example 665, (3R,4S)-4-(4-fluorophenyl)-N-hexyl-1-[(1-methyl-1H-imidazol-4-yl)sulfonyl]pyrrolidin-3-amine]: not above 10 nM.
Next, `CC(C)Oc1cc(N[C@H]2CN(S(=O)(=O)c3cn(C)cn3)C[C@@H]2c2ccc(F)cc2)ncn1` [Example 716, N-{(3R,4S)-4-(4-fluorophenyl)-1-[(1-methyl-1H-imidazol-4-yl)sulfonyl]pyrrolidin-3-yl}-6-(propan-2-yloxy)pyrimidin-4-amine]: not above 100 nM.
For `Cn1cnc(S(=O)(=O)N2C[C@H](Nc3cc(OC4CCC4)ncn3)[C@@H](c3ccc(F)cc3)C2)c1` [Example 719, 6-(cyclobutyloxy)-N-{(3R,4S)-4-(4-fluorophenyl)-1-[(1-methyl-1H-imidazol-4-yl)sulfonyl]pyrrolidin-3-yl}pyrimidin-4-amine] the value was not above 100 nM; for `Cc1ccc(-c2cc(N[C@H]3CN(S(=O)(=O)c4cn(C)cn4)C[C@@H]3c3ccc(F)cc3)ncn2)cc1` [Example 725, N-{(3R,4S)-4-(4-fluorophenyl)-1-[(1-methyl-1H-imidazol-4-yl)sulfonyl]pyrrolidin-3-yl}-6-(4-methylphenyl)pyrimidin-4-amine], not above 10 nM.
In the case of `Cn1cnc(S(=O)(=O)N2C[C@H](Nc3cc(-c4ccc(F)cc4)ncn3)[C@@H](c3ccc(F)cc3)C2)c1` [Example 728, 6-(4-fluorophenyl)-N-{(3R,4S)-4-(4-fluorophenyl)-1-[(1-methyl-1H-imidazol-4-yl)sulfonyl]pyrrolidin-3-yl}pyrimidin-4-amine], the inhibition constant (Ki) was not above 10 nM.
Next, `Cn1cnc(S(=O)(=O)N2C[C@H](Nc3cc(-c4ccc(Cl)cc4)ncn3)[C@@H](c3ccc(F)cc3)C2)c1` [Example 730, 6-(4-chlorophenyl)-N-{(3R,4S)-4-(4-fluorophenyl)-1-[(1-methyl-1H-imidazol-4-yl)sulfonyl]pyrrolidin-3-yl}pyrimidin-4-amine]: not above 10 nM; `Cc1ccc(CO[C@H]2CN(S(=O)(=O)c3cn(C)cn3)C[C@@H]2c2ccc(F)cc2)cc1` [Example 731, 4-({(3S,4R)-3-(4-fluorophenyl)-4-[(4-methylbenzyl)oxy]pyrrolidin-1-yl}sulfonyl)-1-methyl-1H-imidazole]: not above 100 nM; `Cn1cnc(S(=O)(=O)N2C[C@H](Nc3ccc(F)c(-c4cccnc4)c3)[C@@H](c3ccc(F)cc3)C2)c1` [Example 745, (3R,4S)-4-(4-fluorophenyl)-N-[4-fluoro-3-(pyridin-3-yl)phenyl]-1-[(1-methyl-1H-imidazol-4-yl)sulfonyl]pyrrolidin-3-amine]: not above 10 nM.
For `Cc1cc(N[C@H]2CN(S(=O)(=O)c3cn(C)cn3)C[C@@H]2c2ccc(F)cc2)ncc1F` [Example 748, 5-fluoro-N-{(3R,4S)-4-(4-fluorophenyl)-1-[(1-methyl-1H-imidazol-4-yl)sulfonyl]pyrrolidin-3-yl}-4-methylpyridin-2-amine] the value was not above 10 nM; for `Cn1cnc(S(=O)(=O)N2C[C@H](NC(=O)CCC(C)(F)F)[C@@H](c3ccc(F)cc3)C2)c1` [Example 754, 4,4-difluoro-N-{(3R,4S)-4-(4-fluorophenyl)-1-[(1-methyl-1H-imidazol-4-yl)sulfonyl]pyrrolidin-3-yl}pentanamide], not above 10000 nM.
